Counter-ions that a name gives are not always drawn.
Legend:
human spermatozoa [1] = assay: acrosome-reacted (PNA+) sperm after agonist cocktail, percent change vs DMSO (capacitating); higher = more of the measured sperm population than DMSO, for viability, fewer PI-positive (dead) cells than DMSO; settings: incubation time: 3h, capacitating + agonist cocktail 1h
human spermatozoa [2] = assay: viability fold change, 1 - (PI-positive fraction / DMSO median); higher = more of the measured sperm population than DMSO, for viability, fewer PI-positive (dead) cells than DMSO; settings: incubation time: 3h, non-capacitating
HeLa [3] = assay: Cell Painting percent induction (share of features beyond 2 z-scores vs DMSO); higher = more features changed / larger toxic effect; extreme values may be limits of the assay; settings: incubation time: 24h incubation
HepG2 = HepG2 toxicity (resazurin), effect normalised to DMSO (DMSO = 0); higher = more features changed / larger toxic effect; settings: incubation time: 70h incubation
HeLa [4] = assay: HeLa toxicity: nuclei-count effect normalised to DMSO (DMSO = 0); higher = more features changed / larger toxic effect; settings: incubation time: 24h incubation
human spermatozoa [5] = assay: change in acrosome-reacted (PNA+) sperm vs DMSO, no agonist (capacitating); higher = more of the measured sperm population than DMSO, for viability, fewer PI-positive (dead) cells than DMSO; settings: incubation time: 3h
human spermatozoa [6] = assay: progressively motile sperm, percent change vs DMSO (capacitating); higher = more of the measured sperm population than DMSO, for viability, fewer PI-positive (dead) cells than DMSO; settings: incubation time: 30min incubation
human spermatozoa [7] = assay: hyperactivated motile sperm, percent change vs DMSO (capacitating); higher = more of the measured sperm population than DMSO, for viability, fewer PI-positive (dead) cells than DMSO; settings: incubation time: 30min incubation
human spermatozoa [8] = assay: total motile sperm, percent change vs DMSO (non-capacitating); higher = more of the measured sperm population than DMSO, for viability, fewer PI-positive (dead) cells than DMSO
human spermatozoa [9] = assay: progressively motile sperm, percent change vs DMSO (non-capacitating); higher = more of the measured sperm population than DMSO, for viability, fewer PI-positive (dead) cells than DMSO; extreme values may be limits of the assay
[10] = incubation time: 10min incubation, 9.99 µM
[11] = incubation time: 10min incubation, 29.9 µM
[12] = incubation time: 3h incubation, 9.99 µM
[13] = incubation time: 3h incubation, 29.9 µM
[14] = incubation time: 6h incubation, 9.99 µM
[15] = incubation time: 6h incubation, 29.9 µM
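For progressively motile sperm, percent change vs DMSO (non-capacitating) in this document: pooled live human sperm from at least 3 donors, tracked by automated microscopy in 0.5 s time-lapse movies, compounds at 10 and 30 µM, versus median of 16 DMSO wells per plate.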
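For total motile sperm, percent change vs DMSO (non-capacitating) in this document: sperm pooled from at least 3 donors, tracked in 0.5 s time-lapse movies by automated microscopy after 10 min, 3 h or 6 h with compound at 10 or 30 µM.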

| Structure (SMILES) | acrosome-reacted (human spermatozoa [1]; 9.99 µM) [%] | acrosome-reacted (human spermatozoa [1]; 29.9 µM) [%] | viability fold change (human spermatozoa [2]; 9.99 µM) | viability fold change (human spermatozoa [2]; 29.9 µM) | Cell Painting percent induction (HeLa [3]; 9.99 µM) [%] | Cell Painting percent induction (HeLa [3]; 29.9 µM) [%] | HepG2 toxicity (HepG2; 10 µM) [%] | HeLa toxicity: nuclei-count effect normalised (HeLa [4]; 9.99 µM) [%] | HeLa toxicity: nuclei-count effect normalised (HeLa [4]; 29.9 µM) [%] | change in acrosome-reacted (human spermatozoa [5]; 9.99 µM) [%] | change in acrosome-reacted (human spermatozoa [5]; 29.9 µM) [%] | progressively motile sperm (human spermatozoa [6]; 9.99 µM) [%] | progressively motile sperm (human spermatozoa [6]; 29.9 µM) [%] | hyperactivated motile sperm (human spermatozoa [7]; 9.99 µM) [%] | hyperactivated motile sperm (human spermatozoa [7]; 29.9 µM) [%] | total motile sperm (human spermatozoa [8]; [10]) [%] | total motile sperm (human spermatozoa [8]; [11]) [%] | total motile sperm (human spermatozoa [8]; [12]) [%] | total motile sperm (human spermatozoa [8]; [13]) [%] | total motile sperm (human spermatozoa [8]; [14]) [%] | total motile sperm (human spermatozoa [8]; [15]) [%] | progressively motile sperm (human spermatozoa [9]; [10]) [%] | progressively motile sperm (human spermatozoa [9]; [11]) [%] | progressively motile sperm (human spermatozoa [9]; [12]) [%] | progressively motile sperm (human spermatozoa [9]; [13]) [%] | progressively motile sperm (human spermatozoa [9]; [14]) [%] | progressively motile sperm (human spermatozoa [9]; [15]) [%] | HepG2 toxicity (HepG2; 30 µM) [%] |
| --- | --- | --- | --- | --- | --- | --- | --- | --- | --- | --- | --- | --- | --- | --- | --- | --- | --- | --- | --- | --- | --- | --- | --- | --- | --- | --- | --- | --- |
| Cc1sc2c(c1C)C(c1ccc(Cl)cc1)=N[C@@H](CC(=O)OC(C)(C)C)c1nnc(C)n1-2 [JQ1] | 17.2 | 40.2 | -0.127 | -0.0779 | 0.684 | 1.87 | 56.3 | 16.3 | 31.3 | 0.641 | 1.24 | 15.8 | 27.5 | 18.5 | -14.4 | 4.25 | 1.65 | -3.02 | 0.304 | -0.955 | -3.78 | 13.6 | 21.5 | 27.4 | 52.8 | 48 | 55.5 | – |
| COc1cc(SC)ccc1C(=O)N1CCC(Cc2ccccc2)CC1 [JX 401] | 15 | 16.2 | -1.82 | -1.65 | 0.036 | 0 | 9.25 | 4.01 | 2.67 | 0.294 | 1.59 | 4.17 | 3.66 | 19.2 | 24.9 | 3.2 | -0.475 | 1.22 | -0.09 | 0.862 | -0.188 | 2.94 | -4.03 | 10.9 | 7.53 | 13.8 | 14.6 | -2.23 |
| COc1cc(C(=O)N2CCC(N3CCN(C)CC3)CC2)ccc1Nc1ncc2c(n1)N(C)c1ccccc1C(=O)N2C [LRRK2-IN-1] | 58.9 | 103 | -0.856 | -0.909 | 5.8 | 10.2 | 7.52 | 44.2 | 53.9 | 1.4 | 1.43 | 7.96 | 4.98 | 224 | 215 | -2.77 | -1.16 | -9.9 | -13 | -11.9 | -17.6 | 31.1 | 27.8 | 57.2 | 50.6 | 62.8 | 43.3 | 56.2 |
| CC(C)c1ccc2c(c1)CC[C@H]1[C@](C)(CN)CCC[C@]21C [Leelamine hydrochloride] | 41.7 | 60.2 | -1.89 | -2.79 | 25.1 | 36.4 | 102 | 88.2 | 98.4 | 5.38 | 14.4 | 4.41 | -53.6 | -31 | -87.5 | -0.495 | -12.1 | 1.52 | -51.7 | -1.74 | -63.5 | 15.1 | -12.8 | 51.8 | -74.2 | 59.5 | -84.3 | 103 |
| C[C@]1(O)C[C@@H](c2nc(-c3ccc4ccc(-c5ccccc5)nc4c3)c3c(N)nccn32)C1 [Linsitinib] | 115 | 113 | -1.24 | -1.48 | 1.62 | 0.144 | -2.88 | 2.74 | 25 | 1.26 | 1.92 | 10.2 | 14.7 | 219 | 114 | 2.7 | 5.16 | -8.39 | -6.08 | -8.05 | -11.2 | 43.2 | 45.9 | 71.3 | 65.1 | 93.9 | 79.2 | 27.2 |
| CCCCCCCCCCCCCCCCOCC(COCC(F)(F)F)OP(=O)([O-])OC (stereo not drawn) [MJ33] | 6.57 | 19.6 | -0.678 | -0.975 | 0 | 0.036 | -0.425 | 6.41 | 1 | 0.541 | 1 | 10.8 | 15.1 | 21.6 | 9.77 | 2.25 | 4.52 | -13.2 | 0.791 | -9.12 | -4.03 | 3.5 | 11.9 | -6.92 | -2.7 | -4.8 | -4.44 | 2.58 |
| COCC(=O)O[C@]1(CCN(C)CCCc2nc3ccccc3[nH]2)CCc2cc(F)ccc2[C@@H]1C(C)C [Mibefradil] | 18.3 | 38.1 | -1.48 | -2.28 | 5.66 | 43.7 | 14 | 35.6 | 97.9 | 0.323 | 1.49 | 3.94 | 6.24 | -13.7 | -48.1 | -1.6 | 0.488 | -3.96 | -8.13 | -7.2 | -14.3 | 1.95 | 0.528 | 16.4 | 25.7 | 27.4 | 23.4 | 103 |
| CCCCN1C[C@@H](O)[C@H](O)[C@H](O)[C@@H]1CO [Miglustat] | -0.571 | -6.96 | -0.2 | 0.248 | 0 | 0 | 5.75 | 0.0668 | -3.87 | -0.0821 | -0.0793 | 5.12 | 9.04 | 12.2 | 2.46 | -1.47 | 0.804 | -1.56 | -0.192 | -5.48 | -3.6 | -0.816 | 3.26 | 9.63 | 8.04 | 8.15 | 7.52 | -4.38 |
